{
  "source": "patent US20230129364A1",
  "about": "“PYRROLIDINE DERIVATIVE, AND PHARMACEUTICAL COMPOSITION FOR PREVENTING OR TREATING BETA-AMYLOID OR TAU PROTEIN-ASSOCIATED DISEASES CONTAINING SAME” (YONSEI UNIVERSITY, UNIVERSITY - INDUSTRY FOUNDATION (UIF), priority 2019, published 2023)",
  "type_in_all_cases": "biochemical",
  "key": {"[1]": {"target": "T1, Tau protein (wild-type K18) (Homo sapiens, UniProt P10636)", "T1 construct": "Tau protein (wild-type K18)", "T1 sequence (P10636 561-685 limits assumed)": "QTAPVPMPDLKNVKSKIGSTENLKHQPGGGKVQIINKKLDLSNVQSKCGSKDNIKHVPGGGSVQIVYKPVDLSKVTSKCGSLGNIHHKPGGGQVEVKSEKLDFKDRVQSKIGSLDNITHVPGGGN", "experiment": "Tau protein aggregation inhibition test (thioflavin T assay)", "conditions": "heparin/DTT-induced aggregation, 37° C. 5 days, ThT fluorescence vs tau-only control = 100%", "protocol": "(§1) Tau protein (wild-type K18) was dissolved in phosphate-buffered saline (PBS, pH 7.4) at a concentration of 1 mg/mL to prepare a tau protein solution. In order to induce aggregation of tau proteins, 0.1 mg/mL of heparin and 100 μM dithiothreitol (DTT) were added to 1 mg/mL of the tau protein solution, followed by incubation at 37° C. for 5 days. At this time, the result was mixed with each test compound (50, 500 μM) such that the final concentration reached 0.5 mg/mL, followed by further incubation.\nThe inhibitory effect of each compound against tau aggregation was measured based on the intensity of fluorescence by thioflavin T (ThT) assay (see Example 2). More specifically, 25 μL of the reaction solution was charged in each well of a 96-well plate for fluorescence analysis, and 75 μL of the prepared thioflavin-T solution was then charged in each well. The reaction was allowed to proceed at room temperature in a dark laboratory for 5 minutes, and then fluorescence values were measured at an excitation wavelength of 450 nm and an emission wavelength of 485 nm using a multi-mode microplate reader.\nThe ratio of the fluorescence value measured in the group obtained by treating with each test compound to 100% of the fluorescence value of the group (control group) obtained by treating only with tau proteins and inducing aggregation for 5 days is set forth in Table 5 below: […]"}, "[2]": {"target": "T2, aggregated tau protein (wild-type K18) (Homo sapiens, UniProt P10636)", "T2 construct": "Tau protein (wild-type K18)", "T2 sequence (P10636 561-685 limits assumed)": "as above", "experiment": "Tau protein aggregate degradation test (thioflavin T assay)", "conditions": "pre-aggregated tau, further 5 days at 37° C., ThT fluorescence vs control = 100%", "protocol": "as §1, with “solution.” for “solution. In order to induce aggregation of tau proteins,”, “days to induce tau protein aggregation. The aggregated tau protein” for “days. At this time, the result”, “in an amount of 50 or” for “(50,”, “μM” for “μM)”, “incubation at 37° C. for 5 days to induce reaction.” for “incubation.”\nThe degradation effect of each compound on the tau aggregates was measured by thioflavin T (ThT) assay (see Example 2). More specifically, 25 μL of the reaction solution was charged in each well of a 96-well plate for fluorescence analysis and 75 μL of the prepared thioflavin-T solution was charged in each well. The reaction was allowed to proceed at room temperature in a dark laboratory for 5 minutes and then fluorescence values were measured at an excitation wavelength of 450 nm and an emission wavelength of 485 nm using a multi-mode microplate reader.\nThe ratio of the fluorescence value measured in the group obtained by treating with each test compound to 100% of the fluorescence value of the group (control group) obtained by treating only with tau proteins and inducing aggregation for 5 days is set forth in Table 6 below: […]"}, "[3]": {"target": "T3, aggregated beta-amyloid; human Aβ 1-42 (UniProtKB-P05067, a.a. 672-713) (Homo sapiens, UniProt P05067)", "T3 construct": "UniProtKB-P05067, a.a; 672-713", "T3 sequence (P05067 672-713)": "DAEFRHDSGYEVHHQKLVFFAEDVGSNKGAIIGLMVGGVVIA", "experiment": "Beta-amyloid aggregate degradation test (thioflavin T assay)", "conditions": "pre-aggregated Aβ, further 3 days at 37° C., ThT fluorescence vs control = 100%", "protocol": "Aβ (beta-amyloid; human A3 1-42 monomer (UniProtKB-P05067, a.a. 672-713)) was dissolved at a concentration of 10 mM in dimethyl sulfoxide (DMSO), and the resulting solution was diluted to 250 μM using distilled water, and then incubated at 37° C. for 3 days to induce aggregation. The aggregated beta-amyloid was added with each test compound in an amount of 50 or 500 μM such that the final concentration reached 25 μM, and was further cultured at 37° C. for 3 days to induce reaction. The aggregate degradation effect of each test compound was measured by thioflavin T (ThT) assay (see Example 2). Specifically, 25 μL of the reaction solution was charged in each well of a 96-well plate for fluorescence analysis and 75 μL of the prepared thioflavin-T solution was charged in each well. The reaction was allowed to proceed at room temperature in a dark laboratory for 5 minutes and then fluorescence values were measured at an excitation wavelength of 450 nm and an emission wavelength of 485 nm using a multi-mode microplate reader. The ratio of the fluorescence value measured in the group obtained by treating with each test compound to 100% of the fluorescence value of the group (control group) obtained by treating only with beta-amyloids and inducing aggregation for 3 days is set forth in Table 4 below: […]"}},
  "data": [
    {"smiles": "O=C1NC(=S)SC1Cc1cc[nH]c1", "note": "(centres unmarked) [DN204303, 5-((1H-pyrrol-3-yl)methyl)-2-thioxothiazolidin-4-one]", "values": [
      {"measurement": "Tau aggregation remaining (ThT fluorescence, % of tau-only control)", "setting": "[1]; 50 uM test compound", "value": "82.4 % of control"},
      {"measurement": "Tau aggregation remaining (ThT fluorescence, % of tau-only control)", "setting": "[1]; 500 uM test compound", "value": "29.14 % of control"},
      {"measurement": "ThT fluorescence remaining (% of control)", "setting": "[2]; 50 uM test compound", "value": "81.77 % of control"},
      {"measurement": "ThT fluorescence remaining (% of control)", "setting": "[2]; 500 uM test compound", "value": "39.19 % of control"},
      {"measurement": "Beta-amyloid aggregate degradation activity (% of control)", "setting": "[3]; 50 uM test compound", "value": "90.66 % of control"},
      {"measurement": "Beta-amyloid aggregate degradation activity (% of control)", "setting": "[3]; 500 uM test compound", "value": "33.65 % of control"}
    ]},
    {"smiles": "O=C1NC(=S)SC1Cc1c[nH]c2ncccc12", "note": "(centres unmarked) [DN204304, 5-((1H-pyrrolo[2,3-b]pyridin-3-yl)methyl)-2-thioxothiazolidin-4-one]", "values": [
      {"measurement": "Tau aggregation remaining (ThT fluorescence, % of tau-only control)", "setting": "[1]; 50 uM test compound", "value": "70.66 % of control"},
      {"measurement": "Tau aggregation remaining (ThT fluorescence, % of tau-only control)", "setting": "[1]; 500 uM test compound", "value": "39.54 % of control"},
      {"measurement": "ThT fluorescence remaining (% of control)", "setting": "[2]; 50 uM test compound", "value": "67.53 % of control"},
      {"measurement": "ThT fluorescence remaining (% of control)", "setting": "[2]; 500 uM test compound", "value": "50.23 % of control"},
      {"measurement": "Beta-amyloid aggregate degradation activity (% of control)", "setting": "[3]; 50 uM test compound", "value": "97.47 % of control"},
      {"measurement": "Beta-amyloid aggregate degradation activity (% of control)", "setting": "[3]; 500 uM test compound", "value": "73.11 % of control"}
    ]},
    {"smiles": "CN1C(=O)N/C(=C\\c2c[nH]c3cccnc23)C1=O", "note": "[DN204673, (Z)-5-((1H-pyrrolo[3,2-b]pyridin-3-yl)methylene)-3-methylimidazolidine-2,4-dione]", "values": [
      {"measurement": "Tau aggregation remaining (ThT fluorescence, % of tau-only control)", "setting": "[1]; 500 uM test compound", "value": "55.87 % of control"},
      {"measurement": "Beta-amyloid aggregate degradation activity (% of control)", "setting": "[3]; 50 uM test compound", "value": "86.89 % of control"},
      {"measurement": "Beta-amyloid aggregate degradation activity (% of control)", "setting": "[3]; 500 uM test compound", "value": "30.52 % of control"}
    ]},
    {"smiles": "O=C1NC(=S)S/C1=C\\c1c[nH]c2ccncc12", "note": "[DN204807, (Z)-5-((1H-pyrrolo[3,2-c]pyridin-3-yl)methylene)-2-thioxothiazolidin-4-one]", "values": [
      {"measurement": "Tau aggregation remaining (ThT fluorescence, % of tau-only control)", "setting": "[1]; 50 uM test compound", "value": "93.56 % of control"},
      {"measurement": "Tau aggregation remaining (ThT fluorescence, % of tau-only control)", "setting": "[1]; 500 uM test compound", "value": "74.24 % of control"},
      {"measurement": "Beta-amyloid aggregate degradation activity (% of control)", "setting": "[3]; 500 uM test compound", "value": "53.56 % of control"}
    ]},
    {"smiles": "O=C1NC(=S)S/C1=C\\c1c[nH]c2cccnc12", "note": "[DN204808, (Z)-5-((1H-pyrrolo[3,2-b]pyridin-3-yl)methylene)-2-thioxothiazolidin-4-one]", "values": [
      {"measurement": "Tau aggregation remaining (ThT fluorescence, % of tau-only control)", "setting": "[1]; 50 uM test compound", "value": "27.48 % of control"},
      {"measurement": "Tau aggregation remaining (ThT fluorescence, % of tau-only control)", "setting": "[1]; 500 uM test compound", "value": "16.09 % of control"},
      {"measurement": "ThT fluorescence remaining (% of control)", "setting": "[2]; 50 uM test compound", "value": "62.2 % of control"},
      {"measurement": "ThT fluorescence remaining (% of control)", "setting": "[2]; 500 uM test compound", "value": "41.11 % of control"},
      {"measurement": "Beta-amyloid aggregate degradation activity (% of control)", "setting": "[3]; 500 uM test compound", "value": "73.30 % of control"}
    ]},
    {"smiles": "O=C1NC(=S)S/C1=C\\c1ccc2occc2c1", "note": "[DN204809, (Z)-5-(benzofuran-5-ylmethylene)-2-thioxothiazolidin-4-one]", "values": [
      {"measurement": "Tau aggregation remaining (ThT fluorescence, % of tau-only control)", "setting": "[1]; 50 uM test compound", "value": "36.72 % of control"},
      {"measurement": "Tau aggregation remaining (ThT fluorescence, % of tau-only control)", "setting": "[1]; 500 uM test compound", "value": "32.09 % of control"},
      {"measurement": "ThT fluorescence remaining (% of control)", "setting": "[2]; 50 uM test compound", "value": "51.93 % of control"},
      {"measurement": "ThT fluorescence remaining (% of control)", "setting": "[2]; 500 uM test compound", "value": "30.87 % of control"},
      {"measurement": "Beta-amyloid aggregate degradation activity (% of control)", "setting": "[3]; 50 uM test compound", "value": "95.14 % of control"},
      {"measurement": "Beta-amyloid aggregate degradation activity (% of control)", "setting": "[3]; 500 uM test compound", "value": "25.32 % of control"}
    ]},
    {"smiles": "CCN1C(=O)/C(=C/c2c[nH]c3ccccc23)NC1=S", "note": "[DN204811, (Z)-5-((1H-indol-3-yl)methylene)-3-ethyl-2-thioxoimidazolidin-4-one]", "values": [
      {"measurement": "Tau aggregation remaining (ThT fluorescence, % of tau-only control)", "setting": "[1]; 50 uM test compound", "value": "43.22 % of control"},
      {"measurement": "Tau aggregation remaining (ThT fluorescence, % of tau-only control)", "setting": "[1]; 500 uM test compound", "value": "40.21 % of control"},
      {"measurement": "ThT fluorescence remaining (% of control)", "setting": "[2]; 50 uM test compound", "value": "50.44 % of control"},
      {"measurement": "ThT fluorescence remaining (% of control)", "setting": "[2]; 500 uM test compound", "value": "31.04 % of control"},
      {"measurement": "Beta-amyloid aggregate degradation activity (% of control)", "setting": "[3]; 50 uM test compound", "value": "74.64 % of control"},
      {"measurement": "Beta-amyloid aggregate degradation activity (% of control)", "setting": "[3]; 500 uM test compound", "value": "28.97 % of control"}
    ]}
  ]
}
